We go through 6 molecules from the NIST ThermoML archive (doi:10.1016/j.fluid.2009.02.010).

For data set [1] the following is noted: Liquid, Ebulliometric method (Recirculating still).
Data set [2] in a line: refractive index (Na D-line) (dimensionless). Particulars: 298.15 K; 101.33 kPa; Liquid; Standard Abbe refractometry.

SMILES strings stand for the structures. ± gives the expanded uncertainty stated by the source.

A word on the vapor or sublimation pressure: it is the equilibrium pressure above the liquid or solid. A word on the refractive index: it is the speed of light in vacuum divided by its phase velocity in the sample. For the molecule `Cc1ccsc1` [3-methylthiophene], the “vapor or sublimation pressure” value in data set [1] (333.15 K) is 15.43 ± 0.35 kPa; in data set [1] (341.98 K) it was 21.8 ± 0.35 kPa; in data set [1] (350.79 K) it was 30.23 ± 0.36 kPa; in data set [1] (359.01 K), 40.33 ± 0.37 kPa; in data set [1] (365.62 K), 50.31 ± 0.38 kPa; in data set [1] (371.73 K), 61.23 ± 0.39 kPa. Moreover, the “vapor or sublimation pressure” value is 70.53 ± 0.4 kPa in data set [1] (376.26 K), 80.35 ± 0.42 kPa in data set [1] (380.53 K), 91 ± 0.43 kPa in data set [1] (384.69 K) and 100.02 ± 0.44 kPa in data set [1] (387.89 K). Besides, in data set [2], the refractive index is recorded as 1.5172 ± 0.0007.

Take `C=C(C)CC(C)(C)C` [2,4,4-trimethyl-1-pentene]: the refractive index in data set [2] was 1.4062 ± 0.0007.

For the molecule `Cc1ccccc1C` [1,2-dimethylbenzene], the refractive index in data set [2] amounted to 1.5028 ± 0.0007.

Take `CC(C)CC(C)(C)C` [2,2,4-trimethylpentane]: the refractive index in data set [2] was 1.3889 ± 0.0007.

Take `C=CCCCC` [hex-1-ene]: in data set [2], the refractive index turned out to be 1.3849 ± 0.0007.

Consider `C1CCCCC1` [cyclohexane], for which, in data set [2], the refractive index worked out at 1.4235 ± 0.0007.
